Experimental data: patent publication US5885990A, “Substituted amidinonaphthyl ester derivative” (Torii Pharmaceutical Co., Ltd., priority 1995, dated 1999)
Where a name gives a salt, the structure may show the parent alone.

Columns and labels:
[1] = system: blood plasmin like activity; assay: Determination of blood plasmin like activity using synthetic substrate (plasma after oral dosing); assay type: in vivo, rat; conditions: SD male rats, 100 mg/kg oral, substrate Boc-Val-Leu-Lys-MCA, pH 8.5, 37° C., 30 minutes, Water control 0.07
Experimental: (2) Test of determination of blood plasmin like activity using synthetic substrate:
For the test, SD male rats (8 weeks old) after fasted overnight were used, and 100 mg/kg of the present compound was orally administered to the rats, and blood was drawn, with time, from the descending aorta as citrate-containing blood and subjected to centrifugation to obtain plasma. Water was orally administered to the rats of control group and plasma was similarly obtained.
To the plasma obtained were added 0.1M borate buffer solution (pH 8.5) and Boc-Val-Leu-Lys-MCA and incubation was conducted at 37° C. for 30 minutes.

[2] = system: pulmonary thrombosis of mouse models (thrombin-induced); assay: Preventive effect on death due to pulmonary thrombosis of mouse models; assay type: in vivo; set-up: key: ratio of survival rate to positive control group's survival rate; conditions: ddy male mice, 10 mg/kg oral; thrombin 10 units/mouse via caudal vein after 6 hours; survival rate 16 hours after thrombin, as ratio to survival rate of positive control Sepimostat mesilate
Experimental: (1) Preventive effect on death due to pulmonary thrombosis of mouse models:
For experiment, ddy male mice after a fast of 6 hours were used and 10 mg/kg of the present compound was orally administered. […] After lapse of 6 hours, 10 units/mouse of thrombin was administered to the mice through caudal vein to cause thrombosis for the mice. After 16 hours from thrombin-induction, mortality was checked and the preventive effect on death (survival rate) was indicated by the ratio to the survival rate of the positive control group.

[3] = system: plasminogen activator inhibitor (PAI-1); assay: Measurement of plasminogen activator inhibitor (PAI-1) antigen quantity in plasma; assay type: in vivo, rat; conditions: SD male rats, 100 mg/kg oral; plasma of Test (2); ELISA; Water control 54.2
Experimental: (3) Test of measurement of plasminogen activator inhibitor (PAI-1) antigen quantity:
Measurement of PAI-1 antigen quantity was conducted using the plasma obtained in the above Test (2).
Previously, 100 μl of a diluted 10 mM carbonate buffered solution of monoclonal antibody to PAI-1 was put in each well of a 96-well micro-titer plate and left to stand for 16 hours at 4° C., followed by washing, four times, with 10 mM phosphate buffer solution containing 0.1% Tween 20 and adding a standard solution and the plasma sample. After leaving for 2 hours at room temperature and washing again four times, 100 μl of an enzyme-labelled PAI-1 polyclonal antibody was added to carry out reaction at room temperature for 2 hours. After excess antibody was washed, 100 μl of citric acid buffer solution containing 10 mg of o-phenylenediamine and 0.1% hydrogen peroxide was added, followed by leaving it for 30 minutes at 30° C. to cause color formation. After the reaction was terminated by the addition of 50 μl of 2N sulfuric acid, absorbance at 405 nm was measured by a micro-plate reader to determine the PAI-1 antigen quantity in the plasma sample.

SMILES	Plasmin like activity [1]	Preventive effect on death [2]	PAI-1 antigen quantity [3]
N=C(NCCO)Nc1ccc(C(=O)Oc2ccc3cc(C(=N)N)ccc3c2CC(N)=O)cc1 [Example 7, 6-amidino-1-carbamoylmethyl-2-naphthyl 4-[(2-hydroxyethyl)aminoiminomethylamino]-benzoate.dihydrochloride]	0.62 nmol/min/mL	1.05	–
COC(=O)Cc1c(OC(=O)c2ccc(NC3=NCCN3)cc2)ccc2cc(C(=N)N)ccc12 [Example 39, 6-amidino-1-methoxycarbonylmethyl-2-naphthyl 4-[(4,5-dihydro-1H-imidazol-2-yl)amino]benzoate.dimethanesulfonate]	0.58 nmol/min/mL	1.19	–
CC(=O)NCCN=CNCNc1ccc(C(=O)Oc2ccc3cc(C(=N)N)ccc3c2CC(N)=O)cc1.Cl.Cl [Example 3, 6-amidino-1-carbamoylmethyl-2-naphthyl 4-[(2-acetylaminoethyl)iminomethylaminomethylamino]benzoate.dihydrochloride]	–	1.09	–
CN(C)c1ccc(C(=O)Oc2ccc3cc(C(=N)N)ccc3c2CC(N)=O)cc1 [Example 15, 6-amidino-1-carbamoylmethyl-2-naphthyl 4-dimethylaminobenzoate.dihydrochloride]	–	1.05	–
N=C(N)c1ccc2c(CC(N)=O)c(OC(=O)c3ccc(NC4=NCCN4)cc3)ccc2c1 [Example 1, 6-amidino-1-carbamoylmethyl-2-naphthyl 4-[(4,5-dihydro-1H-imidazol-2-yl)amino]-benzoate.dihydrochloride]	0.37 nmol/min/mL	1.16	28.5 ng/mL
N=C(N)c1ccc2c(CC(N)=O)c(OC(=O)c3ccc(N)cc3)ccc2c1 [Example 12, 6-amidino-1-carbamoylmethyl-2-naphthyl 4-aminobenzoate.dihydrochloride]	–	1.05	–
N=C(N)c1ccc2c(CC(N)=O)c(OC(=O)c3ccc(NC4=NCCS4)cc3)ccc2c1 [Example 31, 6-amidino-1-carbamoylmethyl-2-naphthyl 4-[(4,5-dihydrothiazol-2-yl)amino]-benzoate.dihydrochloride]	–	1.00	–
CN=C(NC)Nc1ccc(C(=O)Oc2ccc3cc(C(=N)N)ccc3c2CC(N)=O)cc1 [Example 27, 6-amidino-1-carbamoylmethyl-2-naphthyl 4-methylaminomethyliminomethylaminobenzoate.dihydrochloride]	0.52 nmol/min/mL	–	–
CNC(=N)Nc1ccc(C(=O)Oc2ccc3cc(C(=N)N)ccc3c2CC(N)=O)cc1 [Example 26, 6-amidino-1-carbamoylmethyl-2-naphthyl 4-methylaminoiminomethylaminobenzoate.dihydrochloride]	0.60 nmol/min/mL	–	–
CN(C)C(=O)COC(=O)c1c(OC(=O)c2ccc(NC3=NCCN3)cc2)ccc2cc(C(=N)N)ccc12 [Example 48, 6-amidino-1-dimethylcarbamoylmethoxycarbonyl-2-naphthyl 4-[(4,5-dihydro-1H-imidazol-2-yl)amino]benzoate.dihydrochloride]	–	0.96	–
Cl.Cl.N=C(N)Nc1ccc(C(=O)Oc2ccc3cc(C(=N)N)ccc3c2C=CC(N)=O)cc1 [Example 46, 6-amidino-1-(2-carbamoylvinyl)-2-naphthyl 4-aminoiminomethylaminobenzoate.dihydrochloride]	0.63 nmol/min/mL	–	–
N=C(NCCN1CCCC1)Nc1ccc(C(=O)Oc2ccc3cc(C(=N)N)ccc3c2CC(N)=O)cc1 [Example 24]	0.55 nmol/min/mL	–	–
CN(C)CCNC(=N)Nc1ccc(C(=O)Oc2ccc3cc(C(=N)N)ccc3c2CC(N)=O)cc1 [Example 17, 6-amidino-1-carbamoylmethyl-2-naphthyl 4-[(2-dimethylaminoethyl)aminoiminomethylamino]benzoate.trihydrochloride]	0.62 nmol/min/mL	–	–
N=C(N)c1ccc2c(CCC(N)=O)c(OC(=O)c3ccc(NC4=NCCN4)cc3)ccc2c1 [Example 5, 6-amidino-1-(2-carbamoylethyl)-2-naphthyl 4-[(4,5-dihydro-1H-imidazol-2-yl)amino]-benzoate.dihydrochloride]	–	1.00	–
N=C(N)c1ccc2c(CC(N)=O)c(OC(=O)c3ccc([N+](=O)[O-])cc3)ccc2c1 [Example 11, 6-amidino-1-carbamoylmethyl-2-naphthyl 4-nitrobenzoate.hydrochloride]	–	1.12	–
